Data published in patent publication US20190375786A1, “STABLE PEPTIDES AND METHODS OF USE THEREOF” (Fred Hutchinson Cancer Research Center, priority 2016, published 2019).
Positions of bridges follow the written chain, without caps; N, C: chain ends. Residues, ends and D or L forms follow the SMILES beside them.

Columns and labels:
[1] = biological target: pepsin (Sus scrofa, UniProt P00791); assay: Pepsin digestion resistance in simulated gastric fluid, RP-HPLC; type: in vitro ADME, porcine; design: purchased Sigma Aldrich P7012; conditions: 500 U/ml pepsin in SGF pH 1.05, 30 minutes at 37.5° C.; HPLC peak vs untreated peptide
Method: Peptides were first suspended in 500 ul of ddH2O to a stock concentration of 2 mg/ml. Reactions were prepared by adding 12.5 ug of peptide from the stock solution to a 10 mM solution of DTT in PBS and allowed to incubate at room temperature for 30 minutes. Other reactions were prepared with 12.5 μg peptide with or without 500 U/ml pepsin in simulated gastric fluid (SGF; pH 1.05; […] sodium chloride in 0.7% (v/v) hydrochloric acid) and were incubated for 30 minutes at 37.5° C. Some reactions were quenched with a final concentration of 100 mM Tris base and 10 mM dithiothreitol (DTT). Some reactions were performed in all of the above components, including simulated gastric fluid, pepsin, Tris, and DTT (referred to as SPTD). Reversed phase HPLC (RP-HPLC) was run on samples using an Agilent 1260 HPLC equipped with a C-18 Poroshell 120B column. Sample were analyzed by a gradient method with a mobile phase of Solvent A (water with 0.1% TFA) and Solvent B (acetonitrile with 0.1% TFA). Solvent B was ramped up from 5%-45% of the mobile phase over a period of 10 minutes. Peptides were detected at an absorbance of 214 nm and 280 nm.
(§1) Peptides were first suspended in 500 μl of ddH2O to a stock concentration of 2 mg/ml. Reactions were prepared by adding 12.5 μg of peptide from the stock solution to a 10 mM solution of DTT in PBS and allowed to incubate at room temperature for 30 minutes. Other reactions were prepared with 12.5 μg peptide and 500 U/ml trypsin in 25 mM Tris/75 mM NaCl buffer (pH 7.0) and incubated for 30 minutes at 37.5° C. These reactions were then quenched with 5 μg of soybean trypsin inhibitor (I) and, in some cases, 10 mM dithiothreitol (DTT). Reversed phase HPLC (RP-HPLC) was run on samples using an Agilent 1260 HPLC equipped with a C-18 Poroshell 120B column. Sample were analyzed by a gradient method with a mobile phase of Solvent A (water with 0.1% TFA) and Solvent B (acetonitrile with 0.1% TFA). Solvent B was ramped up from 5%-45% of the mobile phase over a period of 10 minutes. For testing pepsin digestion resistance, reactions were prepared with 12.5 μg peptide with or without 500 U/ml pepsin in simulated gastric fluid (SGF; pH 1.05; […] sodium chloride in 0.7% (v/v) hydrochloric acid) and were incubated for 30 minutes at 37.5° C. For testing temperature resistance, peptides were incubated at 70° C., 75° C., or 100° C. for one hour in 0.5 mM PBS, pelleted, and then the supernatant was analyzed by HPLC.
(§2) This example illustrates peptide stability in biological conditions including in the presence of reducing agents, proteases, oxidative conditions, acidic conditions, and simulated gastric fluids. […] Various peptides were suspended in 500 μl of ddH2O at a stock concentration of 2 mg/ml. This was then diluted in accord with the reaction conditions to prevent adverse buffering effects. Reactions were prepared with 12.5 μg peptide dissolved in solution and, in some samples, additionally suspended in a 10 mM solution of DTT, simulated gastric fluid (pH 1.05; […] sodium chloride in 0.7% (v/v) hydrochloric acid), 500 U pepsin (5000 U/ml pepsin), 50 U trypsin (500 U/ml trypsin) with 1 mg/ml inhibitor in PBS, or a combination of any of these conditions. All protease reactions were incubated for 30 min at room temperature and then quenched. Pepsin reactions were quenched by adding Tris base to a final concentration of 0.075 M. Trypsin reactions were quenched by adding excess soybean trypsin inhibitor. RP-HPLC was then run on samples using an Agilent 1260 HPLC equipped with a C-18 Poroshell 120B column. Sample were analyzed by a gradient method with a mobile phase of Solvent A (water with 0.1% TFA) and Solvent B (acetonitrile with 0.1% TFA). Solvent B was ramped up from 5%-45% of the mobile phase over a period of 10 minutes.
FIG. 20 illustrates high performance liquid chromatograph (HPLC) traces of peptides after pepsin digestion. […]

[2] = biological target: trypsin (Sus scrofa, UniProt P00761); assay: Trypsin digestion resistance of soluble peptide, RP-HPLC; type: in vitro ADME, porcine; design: purchased Sigma Aldrich 6567; conditions: 500 U/ml trypsin, 30 minutes at 37.5° C.; HPLC peak vs untreated peptide
Method: as §1, §2
Soluble peptides were exposed to 500 U/mL porcine trypsin and analyzed by HPLC. Protease resistance was also assessed by using SDPR-displaying peptides. The SDPR vector is similar to the a surface display GFP FasL(SDGF) vector, but contains a C-terminal 6×His tag (SEQ ID NO: 180) and all basic or aromatic amino acid residues on the stalk removed. Protease resistance is then tested by incubation of cells displaying peptides with trypsin or chymotrypsin, followed by incubation in 10 mM DTT, and staining with an anti-6×His fluorophore-labeled antibody (“6×His” disclosed as SEQ ID NO: 180). If peptides are uncleaved, they retain the His tag and are stained with by the antibody. A control protease-sensitive knottin peptide (SK) was used as a positive control. Cells displaying peptides were treated with up to 40 μg/ml trypsin or chymotrypsin.
FIG. 21 illustrates high performance liquid chromatograph (HPLC) traces of peptides after trypsin digestion. […] The assay was carried out by reconstituting 1 mg porcine trypsin (Sigma Aldrich 6567) in 1 mL of 1 mM HCl. Trypsin was provided at a concentration of 10,000 u/mL and thus, 5 μl of stock solution was equivalent to using 50 U of trypsin in each reaction. Soybean trypsin inhibitor (SA T9128) was prepared at 1 mg/mL of in H2O. […]

Sequence of pepsin (P00791 60-385): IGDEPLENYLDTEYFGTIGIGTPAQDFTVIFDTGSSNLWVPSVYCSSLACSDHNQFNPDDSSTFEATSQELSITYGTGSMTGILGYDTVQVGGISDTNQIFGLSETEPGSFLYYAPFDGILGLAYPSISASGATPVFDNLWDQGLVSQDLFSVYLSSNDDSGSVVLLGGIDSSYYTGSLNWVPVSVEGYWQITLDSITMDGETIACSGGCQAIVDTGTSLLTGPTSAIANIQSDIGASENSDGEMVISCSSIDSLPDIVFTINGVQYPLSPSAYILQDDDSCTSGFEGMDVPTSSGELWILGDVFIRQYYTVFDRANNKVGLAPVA
Sequence of trypsin (P00761 9-231): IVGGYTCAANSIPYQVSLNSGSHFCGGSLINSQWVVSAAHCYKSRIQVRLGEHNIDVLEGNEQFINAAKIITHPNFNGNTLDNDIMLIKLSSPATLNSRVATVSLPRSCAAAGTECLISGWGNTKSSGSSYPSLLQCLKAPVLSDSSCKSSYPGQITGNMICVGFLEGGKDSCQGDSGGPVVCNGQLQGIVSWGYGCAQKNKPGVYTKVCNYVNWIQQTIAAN

| Structure (SMILES) | Resistance to Pepsin (500 U/ml) [1] | Resistance to Trypsin (500 U/ml) [2] |
| --- | --- | --- |
| CC[C@H](C)[C@H](NC(=O)[C@H](CC(=O)O)NC(=O)[C@@H](NC(=O)[C@@H]1CCCN1C(=O)[C@H](CCCNC(=N)N)NC(=O)[C@H](CO)NC(=O)CN)[C@@H](C)O)C(=O)N[C@@H](CCCCN)C(=O)N[C@H]1CSSC[C@@H]2NC(=O)[C@H](CCCNC(=N)N)NC(=O)CNC(=O)[C@H](CC(N)=O)NC(=O)[C@H]([C@@H](C)O)NC(=O)[C@H](CCCCN)NC(=O)CNC(=O)[C@H](Cc3ccccc3)NC(=O)[C@H](CCCNC(=N)N)NC(=O)[C@H](CO)NC(=O)[C@H](CCCCN)NC(=O)[C@@H]3CSSC[C@@H](C(=O)N[C@@H](Cc4ccccc4)C(=O)O)NC(=O)[C@H](CC(=O)O)NC(=O)[C@H](CSSC[C@H](NC(=O)[C@H](CCC(N)=O)NC(=O)[C@H](Cc4ccc(O)cc4)NC(=O)[C@H](CO)NC(=O)[C@H](C)NC(=O)[C@H](CO)NC1=O)C(=O)N[C@@H](Cc1ccccc1)C(=O)N1CCC[C@H]1C(=O)N[C@@H](C(C)C)C(=O)N3)NC(=O)[C@H](CC(C)C)NC(=O)CNC(=O)[C@H](CC(N)=O)NC(=O)[C@H](C(C)C)NC2=O [compound 10] (H-GSRPTDIKCSASYQCFPVCKSRFGKTNGRCVNGLCDCF-OH; disulfide 9-30, 15-35, 19-37) | High (A peptide classified as high indicates that the majority (at least 75%) of the HPLC peak of the treated peptide is still present as compared to the HPLC peak of the untreated peptide) | Low (A peptide classified as low indicates that the majority (over 75%) of the HPLC peak of the treated peptide disappeared as compared to the HPLC peak of the untreated peptide) |
| CSCC[C@@H]1NC(=O)[C@@H]2CSSC[C@H](NC(=O)[C@H](CCCCN)NC(=O)[C@@H](NC(=O)[C@H](CC(=O)O)NC(=O)[C@@H](NC(=O)[C@H](Cc3ccccc3)NC(=O)[C@H](CCC(N)=O)NC(=O)[C@H](CO)NC(=O)CN)[C@@H](C)O)C(C)C)C(=O)N[C@@H]([C@@H](C)O)C(=O)NCC(=O)N[C@@H](CO)C(=O)N[C@@H](CCCCN)C(=O)N[C@@H](CCC(N)=O)C(=O)N[C@H]3CSSC[C@H](NC(=O)[C@H](CCCCN)NC(=O)CNC(=O)[C@H](CC(N)=O)NC1=O)C(=O)N[C@@H](CCCNC(=N)N)C(=O)N[C@H](C(=O)N[C@@H](Cc1ccc(O)cc1)C(=O)N[C@@H](CO)C(=O)O)CSSC[C@H](NC(=O)[C@H](C(C)C)NC(=O)[C@@H]1CCCN1C(=O)[C@H](Cc1c[nH]c4ccccc14)NC3=O)C(=O)N[C@@H](CCCCN)C(=O)N[C@@H](CCC(N)=O)C(=O)N[C@@H](CCSC)C(=O)N[C@@H](Cc1ccccc1)C(=O)NCC(=O)N[C@@H](CCCCN)C(=O)N1CCC[C@H]1C(=O)N[C@@H](CC(N)=O)C(=O)NCC(=O)N[C@@H](CCCCN)C(=O)N2 [compound 12] (H-GSQFTDVKCTGSKQCWPVCKQMFGKPNGKCMNGKCRCYS-OH; disulfide 9-30, 15-35, 19-37) | High (A peptide classified as high indicates that the majority (at least 75%) of the HPLC peak of the treated peptide is still present as compared to the HPLC peak of the untreated peptide) | Moderate (A peptide classified as medium indicates that about half (between 25% and 75%) of the HPLC peak of the treated peptide disappeared as compared to the HPLC peak of the untreated peptide) |
| CC[C@H](C)[C@@H]1NC(=O)[C@@H]2CSSC[C@@H]3NC(=O)[C@H](CCC(N)=O)NC(=O)[C@H](CO)NC(=O)[C@H]([C@@H](C)O)NC(=O)[C@H](CC(N)=O)NC(=O)[C@H](CO)NC(=O)[C@@H](NC(=O)[C@H](CCCCN)NC(=O)[C@H](CCCCN)NC(=O)[C@H](CC(N)=O)NC(=O)[C@@H](NC(=O)[C@H](CO)NC(=O)[C@@H](NC(=O)[C@H](CCC(N)=O)NC(=O)[C@H](CO)NC(=O)CN)C(C)C)[C@@H](C)O)CSSC[C@H](NC(=O)[C@H](CCCCN)NC(=O)CNC(=O)[C@H](C)NC(=O)[C@H](C)NC(=O)[C@H](C(C)C)NC(=O)CNC(=O)[C@H](C(C)C)NC(=O)[C@H](C(C)C)NC(=O)[C@H](CCCCN)NC(=O)[C@H](CCC(=O)O)NC(=O)[C@H](CSSC[C@@H](C(=O)N[C@@H](Cc4ccc(O)cc4)C(=O)N4CCC[C@H]4C(=O)O)NC1=O)NC(=O)[C@H]([C@@H](C)O)NC(=O)[C@H](CCCCN)NC(=O)[C@H](Cc1ccc(O)cc1)NC3=O)C(=O)N[C@@H](CCSC)C(=O)N[C@@H](CC(N)=O)C(=O)NCC(=O)N[C@@H](CCCCN)C(=O)N2 [compound 18] (H-GSQVSTNKKCSNTSQCYKTCEKVVGVAAGKCMNGKCICYP-OH; disulfide 10-31, 16-36, 20-38) | High (A peptide classified as high indicates that the majority (at least 75%) of the HPLC peak of the treated peptide is still present as compared to the HPLC peak of the untreated peptide) | Low (A peptide classified as low indicates that the majority (over 75%) of the HPLC peak of the treated peptide disappeared as compared to the HPLC peak of the untreated peptide) |
| CC[C@H](C)[C@H](NC(=O)[C@H](CCCNC(=N)N)NC(=O)[C@@H](NC(=O)[C@H](CO)NC(=O)CN)C(C)C)C(=O)N1CCC[C@H]1C(=O)N[C@H](C(=O)N[C@@H](CO)C(=O)N[C@H]1CSSC[C@@H]2NC(=O)[C@H](CCCCN)NC(=O)CNC(=O)[C@H](Cc3ccccc3)NC(=O)[C@H](CCCNC(=N)N)NC(=O)[C@H](CCSC)NC(=O)CNC(=O)[C@H](C)NC(=O)[C@H](CC(=O)O)NC(=O)[C@H](CCCCN)NC(=O)[C@@H]3CSSC[C@@H](C(=O)N[C@H](C(=O)N4CCC[C@H]4C(=O)N[C@@H](CCCCN)C(=O)O)[C@@H](C)O)NC(=O)[C@H](CC(=O)O)NC(=O)[C@H](CSSC[C@H](NC(=O)[C@H](CCC(N)=O)NC(=O)CNC(=O)[C@H](CO)NC(=O)[C@H](Cc4c[nH]cn4)NC(=O)[C@H](CCCCN)NC1=O)C(=O)N[C@@H](CC(C)C)C(=O)N[C@@H](CCCCN)C(=O)N1CCC[C@H]1C(=O)N3)NC(=O)[C@H](CCCCN)NC(=O)CNC(=O)[C@H](CC(N)=O)NC(=O)[C@H](CCSC)NC2=O)C(C)C [compound 24] (H-GSVRIPVSCKHSGQCLKPCKDAGMRFGKCMNGKCDCTPK-OH; disulfide 9-29, 15-34, 19-36) | High (A peptide classified as high indicates that the majority (at least 75%) of the HPLC peak of the treated peptide is still present as compared to the HPLC peak of the untreated peptide) | Low (A peptide classified as low indicates that the majority (over 75%) of the HPLC peak of the treated peptide disappeared as compared to the HPLC peak of the untreated peptide) |
